Data published in ChEMBL document CHEMBL5523711, “Design, synthesis, and bioevaluation of SOS1 PROTACs derived from pyrido[2,3-d]pyrimidin-7-one-based SOS1 inhibitor” (Bioorg Med Chem Lett, 2024).

How the values were obtained:
Assay type in all cases: functional, cell-based
[1] = test system: A549; assay: Antiproliferative activity against human A549 cells harboring KRAS G12S mutant assessed as inhibition of cell growth
[2] = test system: DLD-1; assay: Antiproliferative activity against human DLD-1 cells harboring KRAS G13D mutant assessed as inhibition of cell growth
[3] = test system: SW-620; assay: Antiproliferative activity against human SW620 cells harboring KRAS G12V mutant assessed as inhibition of cell growth

Row | SMILES | IC50 [1] | IC50 [2] | IC50 [3]
1 | COc1ccc(C(=O)N2CCC3(CCC(CN4CCN(C(=O)[C@H]5CC[C@H](c6cc7c(N[C@H](C)c8cc(N)cc(C(F)(F)F)c8)ncnc7n(C)c6=O)CC5)CC4)CC3)CC2)cc1N1CCC(=O)NC1=O | 52.2 nM | 107 nM | 36.7 nM
2 | COc1cc2nc(C)nc(N[C@H](C)c3cc(N)cc(C(F)(F)F)c3)c2cc1O[C@H]1CCOC1 | 106 nM | 169 nM | 50.5 nM
